Experiments:
PRR = PRR protein expression and sPRR release in mpkCCD cells; format: cell-based, murine; conditions: 10 μM, 24 h
Description: The effect of […] on PRR expression was tested in […] cells. These cells were grown to confluence in six-well plates. After 12-h serum deprivation, the cells were treated with vehicle or 10 μM TO901317 for 24 h and then were harvested for analysis of PRR expression and sPRR release. In a separate experiment, […] cells at 50% density were transiently transfected with a construct containing the luciferase gene under the control of the 2,016-bp 5' flanking region of the PRR gene. Upon confluence, the transfected cells were treated for 24 h with vehicle or 10 μM TO901317 and then were harvested for analysis of luciferase activity. Urinary or medium sPRR was determined using a commercially sPRR enzyme immunoassay (EIA) kit (catalog no. JP27782; Immuno-Biological Laboratories) according to the manufacturer's instructions. Renal tissues were lysed and subsequently sonicated. Protein concentrations were determined using Coomassie reagent. Forty micrograms of protein from each sample were denatured in boiling water, separated by SDS/PAGE, and transferred onto nitrocellulose membranes. Blots were blocked 1 h with 5% nonfat dry milk in Tris-buffered saline (TBS), followed by overnight incubation with primary antibody. […] The blots were quantitated by using Image-Pro Plus (Media Cybernetics). […]

pGL3-PRR = test: PRR-luciferase (pGL3-PRR) reporter assay in mpkCCD cells; format: cell-based, murine; conditions: transfected mpkCCD cells, 10 μM, 24 h
Description: The effect of […] on PRR expression was tested in […] cells. These cells were grown to confluence in six-well plates. After 12-h serum deprivation, the cells were treated with vehicle or 10 μM TO901317 for 24 h and then were harvested for analysis of PRR expression and sPRR release. In a separate experiment, […] cells at 50% density were transiently transfected with a construct containing the luciferase gene under the control of the 2,016-bp 5' flanking region of the PRR gene. Upon confluence, the transfected cells were treated for 24 h with vehicle or 10 μM TO901317 and then were harvested for analysis of luciferase activity. Genomic DNA was extracted from rat tail using a Tissue DNA kit ([…]-01; Promega). A 2,016-bp fragment of the 5' flanking region of the PRR gene (GenBank accession no. NM_001007091; 1,941±75 bp) was amplified from the rat genomic DNA by PCR and subcloned to the pGL3-Basic reporter vector (Promega) using NheI and BgIII restriction sites; this construct was termed “pGL3-PRR.” A 2,084-bp fragment of the 5' flanking region of the AQP2 gene (GenBank accession no. […] Qiagen). […] The vehicle-treated group served as a control. The luciferase activities were measured using a luciferase assay system (Promega), and luminescence was detected by using an illuminometer (BMG FLUOstar OPTIMA).

C57BL6 mice = test: TO901317-induced diabetes insipidus in C57/BL6 mice; format: in vivo, mouse
Description: FIGS. 9A-9I show an initial characterization of diuretic and PRR-inhibitory actions of TO901317 in vivo and in vitro. […] The mice receiving vehicle treatment served as a control. At the end of experiment, 24-h urine collection was performed, followed by analysis of urinary sPRR excretion by ELISA and renal PRR expression by immunoblotting. (A) Urine output (n=30 mice per group). (B) Urinary osmolality (n=15 mice per group). (C) Immunoblotting analysis of renal PRR expression (n=15 mice per group). (D) Densitometric analysis of the immunoblot in C. (E) ELISA analysis of urinary sPRR (n=8 mice per group). (F-I) The effect of TO901317 on PRR expression in cultured CD cells. mpkCCD cells were exposed to vehicle or 10 μM TO901317 for 24 h. The cell lysates were subjected to immunoblotting analysis of PRR protein expression, and the medium was assayed for sPRR concentration by using ELISA and normalized by protein content. In a separate experiment, the cells were transfected with a PRR-luciferase construct, allowed to grown to confluence, and then were treated with vehicle or 10 μM TO901317 for 24 h. (F) Immunoblotting analysis of PRR (n=15 per group). (G) Densitometric analysis of the immunoblot in […]. (H) ELISA analysis of medium sPRR (n=10 per group). (I) The luciferase assay (n=5 per group).
(A) Urine output (n=8 mice per group). (B) Water intake (n=8 mice per group). (C) Water balance (n=8 mice per group). (D) Urinary osmolality (n=8 mice per group). (E) Het (n=8 mice per group).
AQP2 expression was analyzed by immunoblotting and immunostaining. Urinary renin activity was determined by measuring AngI generation, and urinary prorenin/renin concentration was determined by ELISA. (A) Immunoblotting analysis of AQP2 expression (n=15 mice per group). (B) Densitometric analysis of the immunoblots in A. (C) Urinary renin activity (n=8 mice per group). (D) Urinary prorenin/renin excretion (n=8 mice per group). (E) Schematic illustration of the mechanism by which the LXR agonist TO091317 (TO) suppresses PRR transcription and induces DI. LXRs bound to TO091317 function as a […] repressor for the PRR gene, leading to a reduced PRR/sPRR level that decreases AQP2 expression, ultimately causing DI.
Besides their well-recognized role in regulating lipid and glucose metabolism, LXRs are potential regulators of the RAS and fluid balance. […] In the initial experiment, the effects of the LXR agonist TO901317 on fluid homeostasis and on renal PRR and urinary renin levels were examined in mice. A 7-d treatment with TO901317 in C57BL6 mice reduced body weight (32.36±0.63 vs. 28.61±0.36 g, P<0.05) and food intake (4.08±0.19 vs. 3.54±0.15 g, P<0.05), although to a lesser extent. […] The expression of renal PRR protein and the excretion of urinary sPRR were examined by immunoblotting and ELISA, respectively.
In the subsequent experiment, a more detailed analysis of TO901317-induced DI was performed and the causal role of suppressed renal PRR was further examined in this phenomenon. This experiment comprised three groups: control, TO901317-treated, and TO901317+sPRRHis-treated mice. […] Of note, water balance was determined by subtracting urine volume from water intake. AQP2, a major water channel on the apical membrane of the CD, plays a key role in determining urine-concentrating capability. […] ELISA was also performed to determine the prorenin/renin concentration in the urine. Although urinary prorenin/renin excretion was suppressed by TO901317, it was unaffected by sPRRHis (FIG. 11D). […] FIG. 11E provides a schematic illustration of the mechanism by which TO901317 induces DI. Upon binding to TO901317, LXRs function as a transcriptional repressor to inactivate PRR transcription. The reduced PRR/sPRR levels down-regulate AQP2 expression, leading to DI.
Male 10- to 12-wk-old SD rats and C57BL6 mice were purchased from Charles River Laboratories and the Jackson Laboratory, respectively. All animals […] 50 mg kg body weight-1·d-1. […]

Q: Which “reduction of medium sPRR” value (PRR; ELISA) does the source give for `O=S(=O)(c1ccccc1)N(CC(F)(F)F)c1ccc(C(O)(C(F)(F)F)C(F)(F)F)cc1` [TO901317] here?
A: 60%

Q: And the “reduction of PRR protein expression” value (PRR; immunoblotting)?
A: 85%

Q: And the “suppression of luciferase activity (pGL3-PRR)” value (pGL3-PRR)?
A: 76%

Q: What about the “urine output, water intake, water balance, urinary osmolality, Hct” value (C57BL6 mice; C57/BL6 mice, TO901317 alone, 7 d) of the same compound?
A: polyuria, polydipsia, decreased water balance, hypoosmotic urine, and plasma volume contraction

Q: What about the urinary osmolality (C57BL6 mice; C57BL6 mice, 7-d treatment) of the same compound?
A: hypoosmotic urine

Q: What about the urine output (C57BL6 mice; C57BL6 mice, 7-d treatment) of the same compound?
A: severe polyuria

Q: What about the “urinary sPRR excretion” value (C57BL6 mice; C57BL6 mice, 7-d treatment, ELISA) of the same compound?
A: suppressed consistently

Q: And the “renal PRR expression” value (C57BL6 mice; C57BL6 mice, 7-d treatment, immunoblotting)?
A: suppressed consistently

Q: And the food intake (C57BL6 mice; C57BL6 mice, 7-d treatment, control 4.08±0.19, P<0.05)?
A: 3.54 ± 0.15 g

Q: What about the body weight (C57BL6 mice; C57BL6 mice, 7-d treatment, control 32.36±0.63, P<0.05) of the same compound?
A: 28.61 ± 0.36 g

Q: What about the “urinary renin activity (generation of AngI)” value (C57BL6 mice; TO901317 alone, 7 d) of the same compound?
A: suppressed

Q: And the urinary prorenin/renin excretion (C57BL6 mice; TO901317 alone, 7 d, ELISA)?
A: suppressed

Q: And the “renal AQP2 expression” value (C57BL6 mice; TO901317 alone, 7 d, immunoblotting)?
A: significantly reduced

Reference: patent US11911442B2, “Use of soluble pro(renin) receptor to treat metabolic disorders and related conditions” (priority 2017, dated 2024)
